Patent US20180252700A1, “SCREENING AGENTS IN DRY EYE DISEASE” (Ora, Inc., priority 2016, published 2018)

Target: T1, TRPM8 (Homo sapiens, UniProt Q7Z2W7)
T1 construct: cold receptors express TRPM8 channels, which are sensitive to innocuous cooling; from tissue; host or cells: eye (corneal cold thermoreceptor nerve endings) of living human subjects
Experiment: Menthol vs placebo symptom response on 0-10 Cooling Scale, escalating menthol concentrations (Example 1)
Type: in vivo
Settings: for Is Menthol symptom response significantly higher than placebo? (TSS): Wilcox signed rank test, 95% confidence; for Duration of symptoms (furthest time point post-dose with symptom score higher than 0), mean: average of all concentrations
Protocol: 6 Healthy and 4 Dry Eye individuals participated in a 2-day internal pilot study. Each participant underwent randomized eye, contralateral, 15 μl pipette-instilled dosing of menthol and placebo (Sterile PBS, pH 7.2), across an escalating range of Menthol concentrations. The following dilutions (USP-grade L-Menthol in Sterile PBS, pH 7.2) were initially tested, in the following order (concentrations are w/v):
Post dose, a 0-10 Cooling Scale questionnaire, where 0 represents “No cooling sensation”, and 10 denotes “Maximum cooling sensation”, was asked at the following time points (OD, OS separate; OD represents your right eye and OS represents your left eye): Upon instillation, 30 seconds, 1 minute, 2 minutes, 3 minutes, and 4 minutes—post dose. At least 45 minutes was allowed between each successive dosing to allow for re-sensitization of TRPM8, as well as to allow any analgesic effects of μ-opioid activity to diminish. At the beginning of Visit 1, symptom questionnaires and Ocular Surface Disease Index (OSDI) were asked. After all concentrations of menthol had been tested, Fluorescein staining and Anesthetized Schirmer's test were performed (1 hour washout). The Schirmer test, first described in 1903 by Schirmer, is still the method most commonly used to evaluate aqueous tear production (Schirmer Graefes Arch Clin Exp Ophthalmol. 1903; 56:197-291,1903).
The primary parameter used was Total Symptom Sum, or TSS (sum of all time points), in active eye vs placebo eye. The secondary parameter used was “Upon instillation” Cooling score. FIG. 1 illustrates a frequency distribution of all symptom scores, based on a histogram of the data. […] As such, nonparametric statistical analysis was used to determine if differences exist between treatments (menthol vs placebo). In the following results, a Wilcox Signed Rank test was employed to test the null hypothesis that Menthol and Placebo elicit statistically similar symptom scores on the Cooling Scale. If TTest Stat<TCritical Value. If so, then the null hypothesis can be rejected with 95% confidence.
All concentrations tested are shown in Table 2, below, along with statistical significance indicated for either group according to a Wilcox Signed Rank Test (Total Symptom Sum, Menthol vs Placebo): […]

[1] = Dry Eye Population, Menthol 0.000050 (w/v)
[2] = Dry Eye Population, Menthol 0.000075 (w/v)
[3] = Dry Eye Population, Menthol 0.0001 (w/v)
[4] = Dry Eye Population, Menthol 0.001 (w/v)
[5] = Healthy Population, Menthol 0.001 (w/v)

T1 sequence (Q7Z2W7 whole entry): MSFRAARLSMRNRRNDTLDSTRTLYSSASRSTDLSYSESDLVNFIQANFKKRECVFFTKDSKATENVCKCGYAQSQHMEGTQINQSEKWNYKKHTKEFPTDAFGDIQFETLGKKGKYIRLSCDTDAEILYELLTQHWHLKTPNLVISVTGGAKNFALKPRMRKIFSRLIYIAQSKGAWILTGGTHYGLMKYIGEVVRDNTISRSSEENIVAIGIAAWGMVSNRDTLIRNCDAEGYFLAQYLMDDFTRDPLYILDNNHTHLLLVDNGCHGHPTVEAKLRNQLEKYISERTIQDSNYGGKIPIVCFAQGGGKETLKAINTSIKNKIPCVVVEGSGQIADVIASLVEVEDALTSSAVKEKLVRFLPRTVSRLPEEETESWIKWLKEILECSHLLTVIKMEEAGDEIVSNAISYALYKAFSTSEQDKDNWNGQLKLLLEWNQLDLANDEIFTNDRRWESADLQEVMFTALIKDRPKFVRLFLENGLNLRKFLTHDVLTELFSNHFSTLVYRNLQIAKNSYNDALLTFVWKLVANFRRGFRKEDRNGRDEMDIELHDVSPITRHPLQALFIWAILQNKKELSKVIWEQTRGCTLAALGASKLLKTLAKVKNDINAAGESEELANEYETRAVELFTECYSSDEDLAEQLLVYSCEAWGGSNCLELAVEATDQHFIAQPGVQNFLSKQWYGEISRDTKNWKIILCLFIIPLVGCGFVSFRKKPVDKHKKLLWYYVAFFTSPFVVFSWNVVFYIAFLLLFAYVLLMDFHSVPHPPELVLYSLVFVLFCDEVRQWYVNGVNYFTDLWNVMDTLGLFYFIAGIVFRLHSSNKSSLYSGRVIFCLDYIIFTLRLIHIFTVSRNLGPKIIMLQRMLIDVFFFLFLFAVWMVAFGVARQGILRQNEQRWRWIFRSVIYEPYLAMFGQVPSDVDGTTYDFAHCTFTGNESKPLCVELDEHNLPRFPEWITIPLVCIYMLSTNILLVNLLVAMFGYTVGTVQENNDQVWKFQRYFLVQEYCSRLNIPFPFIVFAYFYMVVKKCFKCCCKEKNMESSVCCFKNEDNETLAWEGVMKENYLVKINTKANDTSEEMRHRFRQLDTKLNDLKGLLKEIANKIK

Question: With `CC(C)[C@@H]1CC[C@@H](C)C[C@H]1O` [Menthol, L-Menthol] as the molecule, how does the “% of population that had significantly higher menthol TSS than placebo TSS” value (Dry Eye Population, Menthol 0.000001 (w/v)) read?
Answer: 0%

Question: And the “% of population that had significantly higher menthol TSS than placebo TSS” value (Dry Eye Population, Menthol 0.00001 (w/v))?
Answer: 0%

Question: What about the “% of population that had significantly higher menthol TSS than placebo TSS” value (Dry Eye Population, Menthol 0.000025 (w/v)) of the same molecule?
Answer: 0%

Question: What about the “% of population that had significantly higher menthol TSS than placebo TSS” value [1] of the same molecule?
Answer: 75%

Question: What about the “Is Menthol symptom response significantly higher than placebo? (TSS)” value [1] of the same molecule?
Answer: YES

Question: And the “% of population that had significantly higher menthol TSS than placebo TSS” value [2]?
Answer: 25%

Question: And the “Is Menthol symptom response significantly higher than placebo? (TSS)” value [2]?
Answer: YES

Question: And the “% of population that had significantly higher menthol TSS than placebo TSS” value [3]?
Answer: 25%

Question: What about the “Is Menthol symptom response significantly higher than placebo? (TSS)” value [3] of the same molecule?
Answer: YES

Question: What about the “% of population that had significantly higher menthol TSS than placebo TSS” value [4] of the same molecule?
Answer: 75%

Question: What about the “Is Menthol symptom response significantly higher than placebo? (TSS)” value [4] of the same molecule?
Answer: YES

Question: And the “Duration of symptoms (furthest time point post-dose with symptom score higher than 0), mean” value (Dry Eye, p=0.004 vs Normal)?
Answer: 2.58 min

Question: What about the “% of population that had significantly higher menthol TSS than placebo TSS” value (Healthy Population, Menthol 0.000001 (w/v)) of the same molecule?
Answer: 0%

Question: And the “% of population that had significantly higher menthol TSS than placebo TSS” value (Healthy Population, Menthol 0.00001 (w/v))?
Answer: 0%

Question: What about the “% of population that had significantly higher menthol TSS than placebo TSS” value (Healthy Population, Menthol 0.000025 (w/v)) of the same molecule?
Answer: 0%

Question: And the “% of population that had significantly higher menthol TSS than placebo TSS” value (Healthy Population, Menthol 0.000050 (w/v))?
Answer: 16%

Question: What about the “% of population that had significantly higher menthol TSS than placebo TSS” value (Healthy Population, Menthol 0.000075 (w/v)) of the same molecule?
Answer: 16%

Question: And the “% of population that had significantly higher menthol TSS than placebo TSS” value (Healthy Population, Menthol 0.0001 (w/v))?
Answer: 0%

Question: And the “% of population that had significantly higher menthol TSS than placebo TSS” value [5]?
Answer: 50%

Question: And the “Is Menthol symptom response significantly higher than placebo? (TSS)” value [5]?
Answer: YES

Question: And the “Correlation score between Menthol TSS and 4-Symptom Questionnaire” value (Menthol 0.001%)?
Answer: 0.64

Question: What about the “Correlation score between Menthol TSS and Fluorescein Staining (Corneal)” value (Menthol 0.001%) of the same molecule?
Answer: 0.50

Question: What about the “Correlation score between Menthol TSS and OSDI” value (Menthol 0.001%) of the same molecule?
Answer: 0.79

Question: What about the “Menthol TSS, Dry Eye vs Normal” value (Menthol 0.001%) of the same molecule?
Answer: significantly higher than Normal

Question: What about the “Duration of symptoms (furthest time point post-dose with symptom score higher than 0), mean” value (Normal) of the same molecule?
Answer: 1.57 min

Question: And the “"Upon Instillation" menthol symptom response, Normal vs Dry Eye” value (any concentrations tested, FIG. 3)?
Answer: No significant differences

Question: What about the “Symptom response to menthol (TSS), dry eye subjects vs normal” value (concentrations of 0.0001% and up, FIG. 2) of the same molecule?
Answer: significantly higher in dry eye subjects

Question: And the “Lower concentration at which Dry Eye population can differentiate Menthol from Placebo compared with Normal” value (from Table 2)?
Answer: 50 fold
